“Also recorded” adds a separate entry of the source.
Assays:
beagle dogs = assay: 28-day canine study (Example 9); type: in vivo; settings: galactomannan at 500 mg/m2, daily IV for four consecutive days
Protocol: In a 28-day canine study, single daily IV doses of saline, 6 mg/kg (120 mg/m2) 5-FU and ([…] (240 mg/m2) galactomannan or 4/2 mg/kg (80/40 mg/m2), 6/3.2 mg/kg (120/64 mg/m2) or 6/6 mg/kg (120/120 mg/m2) 5-FU/galactomannan were injected for four consecutive days to six groups of beagle dogs Mortality occurred in 13 of 48 dogs (five moribund sacrifices and eight found dead) between Study Days 2 and 5 (4/4 males on 5-FU; 3/4 males in the 4/2 mg/kg 5-FU/galactomannan group; 2/4 males and 1/4 females in the 6/3.2 and 6/6 mg/kg 5-FU/galactomannan groups, respectively).
Adverse effects in 5-FU groups included ataxia, prostration, vocalization, convulsions, tremors, hypersensitivity to touch, aggressive behavior (resulting in only three doses being given to the 6/3.2 5-FU/galactomanna group), emesis, salivation, soft stools and decreased red cell parameters and platelet counts. […] At the day 5 necropsy, treatment-related histological changes were largely limited to the 5-FU females. At day 29 necropsy, there were no remarkable changes in the survivors.

dogs = assay: Acute toxicology, single IV injection in dogs; type: in vivo; settings: 5-FU 28.5 mg/kg, galactomannan 15 mg/kg, combination 28.5/15 mg/kg
Protocol: Acute toxicology studies of the galactomannan of the present invention were performed in mice, rats and dogs and subchronic toxicology studies were performed in rats and dogs. The following is a summary of the findings of these studies:
The surviving dogs remained clinically normal and had no treatment-related changes in body weight, feed consumption, ECG tracings, clinical pathology or gross tissue changes during the 21-day study period.

mice = assay: Acute toxicology, single IV dose in mice; type: in vivo; settings: single IV dose; galactomannan (336 mg/m2), 112 mg/kg (336 mg/m2); combination 417/222 mg/kg (1251/666 mg/m2); n=5/group
Protocol: Acute toxicology studies of the galactomannan of the present invention were performed in mice, rats and dogs and subchronic toxicology studies were performed in rats and dogs. The following is a summary of the findings of these studies: […]

[1] = system: COLO 205 human colon tumor xenografts; assay: Efficacy and compatibility with leucovorin in COLO 205 human colon tumor xenografts, q4d×4 (Example 4)
Protocol: The principal differences with the study described in Example 3 were that (a) the galactomannan was from another source, of a different size (molecular weight) and with a different Man/Gal ratio, (b) there were four consecutive injections, not three, (c) there were four doses of the galactomannan tested, not one, (d) 5-FU was administered (i.v.) in 48 mg/kg/dose, not 75 mg/kg/dose, as in the first study, and (e) galactomannan (i.v. injection) was compared with leucovorin (oral gavage, administered two hours after 5-FU) in terms of efficacy and toxicity. […] 5-FU alone was administered i.v. on the same q4d×4 treatment schedule at dosages of 48 mg/kg/dose. 5-FU was formulated in saline fresh on each day of treatment at a concentration of 4.8 mg/mL, at pH 9.2. […] Leucovorin powder (clinical formulation, Leucovorin calcium for injection) was reconstituted with water for injection to yield a concentration of 10 mg/mL. On each day of treatment the stock solution was diluted with water for injection to yield a concentration of 2.5 mg/mL.
Two more combination-treatment groups were also included in the study. One group of mice was treated with 5-FU (48 mg/kg/dose, i.v., q4d×4), followed by oral gavage (p.o.) with leucovorin, administered two hours after 5-FU at a dosage of 25 mg/kg/dose. Another two groups of mice were treated with 5-FU in a combination with the galactomannan (48 mg/kg/dose and 120 mg/kg/dose, respectively, i.v., q4d×4), followed by p.o. leucovorin treatment, administered at a dosage of 25 mg/kg/dose two hours after 5-FU plus the galactomannan.
There were a total of nine groups of 10 animals each, s.c.-implanted with COLO 205 human colon tumor xenografts.

[2] = i.v. q4d×4, 5-FU 48 mg/kg/dose, GM 120 mg/kg/dose

(((1,4)-linked β-D-mannopyranose)17-((1,6)-linked-β-D-galactopyranose)10)12) [GM]
adverse effects (beagle dogs): no observed adverse effects
death (dogs): 0/2
clinical signs of toxicity, death or decreased weight gain (mice): no clinical signs of toxicity, death or decreased weight gain
tumor growth delay / tumor regression after 13 days ([1]; GM 120 mg/kg/dose alone, q4d×4): did not delay growth; also recorded: No tumor regression
median to quadrupling of tumor volume [1, 2]: 6.9 days
median tumor volume after 13 days [1, 2]: 1152 mm3
